A value given as a limit tells only on which side of the number the result lay.

Data set [1] is described as follows: Microsome (oxidative metabolism) stability, mouse. Particulars: for half-life at 1 µM: liver microsomes 0.5 mg/mL, NADPH, read-out: T1/2 Mouse; for microsomal CLint at 1 µM: liver microsomes, read-out: CL Mouse. It counts as in vitro ADME. How it is done:
(§1) Microsome stability assays were performed by Bioduro, LLC. Briefly, 2.5 µL (100 µM in DMSO) of test compounds are added to 197.5 µL of human, rat, or mouse microsome preparation (0.633 mg/mL in phosphate buffer) and mixed gently at 37 °C. The reaction is started by adding 50 µL NADPH (5 mM in phosphate buffer) and mixing at 37 °C. The final reaction microsome concentration is 0.5 mg/mL. The reaction is sampled at 0, 5, 15, 30, and 60 min. Reaction aliquots are quenched by adding to 1:1 methanol–acetonitrile containing analytical standards and analyzed by liquid chromatography with tandem mass spectrometry (LC-MS/MS).
On the technique in general: Liver microsomes are a subcellular fraction often used to study metabolism.

A short description of data set [2]: Microsome (oxidative metabolism) stability, human. In kind it is in vitro ADME. Particulars: for half-life at 1 µM: liver microsomes 0.5 mg/mL, NADPH, read-out: T1/2 Human; for microsomal CLint at 1 µM: liver microsomes, read-out: CL Human. How it is done:
as §1

Data set [3] concerns SK-N-AS, SK-N-BE(2), SH-EP, WAC2, COA6, COA129 cells. Nature of the data set: alamarBlue viability, long-term cell lines and PDX cells. In kind it is cell-based, human. Conditions: increasing doses, 24 h; all cell lines. How it is done:
CellTiter 96® Aqueous One Solution Cell Proliferation assay (Promega, Madison, WI, USA) was used to examine proliferation, and alamarBlue® assay (Thermo Fisher Scientific, Inc.) was used to evaluate viability. Cells, concentrations ranging from 5 × 10^3 to 1.5 × 10^4, depending on cell type due to wide variation in growth characteristics between established cell lines and PDX cells, were plated in 96-well plates and treated with increasing doses of 792 or 1154 for 24 h. CellTiter 96® or alamarBlue® dye (10 µL) was added for proliferation and viability assays, respectively. A microplate reader (Epoch Microplate Spectrophotometer, BioTek Instruments, Winooski, VT) measured absorbance at 490 nm for CellTiter 96® and at 570 nm for alamarBlue®, using 600 nm as a reference. […] Experiments were completed with at least three biologic replicates, and data reported as fold change ± SEM.
Supplemental Figure S5: Treatment of neuroblastoma cell lines with 792 or 1154 resulted in decreased viability. Neuroblastoma cells ( 1.5 x 104 for AS, BE, SH-EP, WAC, COA6; 3 x 105 for COA129) were plated in 96-well plates and treated with increasing doses of 792 or […]
viability following increasing doses of either 792 (A) or 1154 (B). Similarly, increasing […]
PDXs. Data reported as mean fold change ± SEM, and experiments were repeated with at least three biologic replicates. […]
On the technique in general: Alamar Blue is a resazurin reagent that responds to reducing activity.

Data set [4] deals with SK-N-AS, SK-N-BE(2), SH-EP, WAC2 cells. Put plainly: Monolayer wound healing (scratch) migration assay. Particulars: 36 h; 792 10 μM SK-N-AS, 15 μM others; 1154 10 μM SK-N-AS and SK-N-BE(2), 15 μM SH-EP and WAC2. In kind it is cell-based, human. How it is done:
(§2) Since the established neuroblastoma cell lines grow as adherent cells, migration in SK-N-AS, SK-N-BE(2), SH-EP, and WAC2 cells was examined using monolayer wound healing (scratch) assay. […] Once cells reached 80% confluence, a sterile 200 μL pipette tip was used to make a standard scratch in the cell layer. Photographs of the plates were obtained at 0, 12, 24, and 36 h. ImageJ MRI Wound Healing Tool (http://imagej.nih.gov/ij/ (accessed on 14 October 2019) quantified the open wound area, and data reported as fold change of the open area ± SEM. Invasion was evaluated with a modified Boyden chamber technique. The insert bottoms were coated with collagen type I (10 µg/mL, MP Biomedicals, Santa Ana, CA, USA). The insert tops were coated with a layer of Matrigel^TM (1 mg/mL, 50 μL, BD Biosciences). Cells were treated for 24 h with 792 (SK-N-AS 10 μM; SK-N-BE(2), SH-EP, WAC2 15 μM) or 1154 (SK-N-AS, SK-N-BE(2) 10 μM; SH-EP, WAC2 15 μM), plated (4 × 10^4 cells), and allowed to invade through the membrane for 24 h. Insert membranes were fixed using 4% paraformaldehyde, stained with 1% crystal violet for 15 min, photographed, and invasion quantified with ImageJ (http://imagej.nih.gov/ij/ (accessed on 10 September 2019)). Invasion data were reported as mean percent membrane occupied by cells ± SEM. Experiments were completed with at least three biologic replicates.

The test system is the same in data set [5]. Nature of the data set: Modified Boyden chamber invasion assay. It counts as cell-based, human. Particulars: 24-h treatment, same doses as scratch assay; four cell lines. As to the method: as §2
A further data set relates to SH-EP cells. Nature of the data set: Annexin V/PI apoptosis flow cytometry, SH-EP. It counts as cell-based, human. Conditions: 10 µM, 24 h. How it is done:
Apoptosis was evaluated using the FITC Annexin V Apoptosis Detection Kit (BD Biosciences) according to manufacturer’s protocol. SH-EP cells (5 × 10^5) were treated with either 792 or 1154 (10 µM) for 24 h. Cells were trypsinized, washed with PBS, centrifuged, and re-suspended in 100 μL of 1× binding buffer (0.1 M HEPES/NaOH, 1.4 M NaCl, 25 mM CaCl2, pH 7.4). Annexin V-FITC staining solutions were added, and cells were incubated for 15 min at room temperature (20–25 °C) in the dark. Cells were washed in 1 mL of 1× binding buffer, centrifuged, and re-suspended in 500 μL of 1× binding buffer. PI was added, and cells sat on ice for 1 h prior to flow cytometry. Unstained cells and cells stained with either PI or Annexin V alone were utilized for negative controls and compensation. The percent of Annexin V and/or PI positive cells was determined via flow cytometry using the Attune NxT Flow Cytometer (Invitrogen). Data are represented as percent cell population with Annexin V + PI− stained cells representing early apoptotic cells, Annexin V + PI + cells representing late apoptotic cells, cells not stained with Annexin V or PI representing live cells, and cells stained with PI only representing necrotic or dead cells. FlowJo software (FlowJo, LLC) was used for data analysis. Data reported as mean ± SEM.
Supplemental Figure S6: 792 and 1154 treatment and apoptosis. Cells were serum starved and treated with 792 or 1154 to evaluate the cell cycle as previously described (Figure 4).
(A) The percent of cells in the subG1 (<G1) is reported in tabular form. There was no sig-nificant increase in the subG1 population in any of the cell lines except for SH-EP cells […]
subG1 population, further investigation of apoptosis was performed. Cells were treated with 792 or 1154 (0, 10 µM) for 24 hours and were assessed by flow cytometry of Annexin V/PI dual staining, and FlowJo was used for analysis. […]
significant increase (B) in early apoptosis (Annexin V + PI - cells, quadrant Q3) (C) whereas […]
mechanism behind the effect of these drugs on viability. […]

For `O=S(=O)(NC1CCCC(N2c3ccccc3CCc3ccccc32)C1O)c1ccc(OC(F)(F)F)cc1` (centres unmarked) [DBK-1154], in data set [1], the half-life at 1 µM was 6 min and the microsomal CLint at 1 µM amounted to 234 µL/min/mg. In data set [2], the half-life at 1 µM was determined as 10 min and the microsomal CLint at 1 µM worked out at 134 µL/min/mg. In data set [3], the viability entry is listed as “significantly decreased viability”. In addition, in data set [4], the “Migration (fold change of open wound area)” value was “significantly decreased”. Moreover, the Invasion result in data set [5] is recorded as “significantly decreased”. The “late apoptosis (Annexin V/PI)” value in the data set with SH-EP cells is “increased cells in late apoptosis”.

Turning to `O=S(=O)(N[C@H]1COC[C@@H](n2c3ccc(Cl)cc3c3cc(Cl)ccc32)[C@@H]1O)c1ccc(OC(F)(F)F)cc1` [ATUX-792], in data set [1], the half-life at 1 µM is greater than 256 min and the microsomal CLint at 1 µM was less than 5 µL/min/mg. In addition, in data set [2], the half-life at 1 µM was greater than 256 min and the microsomal CLint at 1 µM is less than 5 µL/min/mg. Moreover, the viability entry in data set [3] is listed as “significantly decreased viability”. In addition, the “Migration (fold change of open wound area)” value in data set [4] is reported as “significantly decreased”. The Invasion result in data set [5] is “significantly decreased”. Also, in the data set with SH-EP cells, the “early apoptosis (Annexin V/PI)” value is given as “significant increase in early apoptosis” and the “late apoptosis (Annexin V/PI)” value was “increased cells in late apoptosis”.

For the origin of these results see paper PMC9026148, “Pre-Clinical Study Evaluating Novel Protein Phosphatase 2A Activators as Therapeutics for Neuroblastoma” (Cancers, 2022).
